Measurements taken from patent publication US9359308B2, “Pyrazine kinase inhibitors” (Portola Pharmaceuticals, Inc., priority 2011, dated 2016).

biological target: T1, full length active recombinant SYK enzyme (Homo sapiens, UniProt P43405); assay: Inhibition of Syk tyrosine phosphorylation activity (LANCE TR-FRET kinase assay); assay type: biochemical; settings: activity in the Syk assays, class symbols
T1 construct: full length active recombinant SYK enzyme (Millipore, Calif.); purchased Millipore
Summary of the method: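 IC50 was derived by non-linear regression of TR-FRET signal (Eu-W1024-PY100 donor, streptavidin-APC acceptor) read 1 h after EDTA quench. The kinase step ran 1 h at room temperature with 1 nM full-length SYK, 550 nM biotinylated DEEDYESP substrate and 100 μM ATP in Tris pH 7.5/MgCl2/DTT at 3% final DMSO.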

Structure (SMILES) | IC50 [nM]
CC(C)C[C@@H](Nc1cnc(C(N)=O)c(Nc2cncc(F)c2)n1)C(N)=O [Example 70, (R)-5-(1-amino-4-methyl-1-oxopentan-2-ylamino)-3-(5-fluoropyridin-3-ylamino)pyrazine-2-carboxamide] | 10 to 100
CC[C@@H](Nc1cnc(C(N)=O)c(Nc2ccnc(C3CC3)c2)n1)C(N)=O [Example 342, (R)-5-(1-amino-1-oxobutan-2-ylamino)-3-(2-cyclopropylpyridin-4-ylamino)pyrazine-2-carboxamide] | < 1
CC(C)C[C@@H](Nc1cnc(C(N)=O)c(Nc2ccc3c(c2)CCC(=O)N3C)n1)C(N)=O [Example 89, (R)-5-(1-amino-4-methyl-1-oxopentan-2-ylamino)-3-(1-methyl-2-oxo-1,2,3,4-tetrahydroquinolin-6-ylamino)pyrazine-2-carboxamide] | 1 to 10
CC[C@@H](Nc1cnc(C(N)=O)c(Nc2ccc(-c3ccncc3)cc2)n1)C(N)=O [Example 28, (R)-5-(1-amino-1-oxobutan-2-ylamino)-3-(4-(pyridin-4-yl)phenylamino)pyrazine-2-carboxamide] | 1 to 10
CC(C)[C@@H](Nc1cnc(C(N)=O)c(Nc2ccc(S(=O)(=O)N(C)C)cc2)n1)C(N)=O [Example 156, (R)-5-(1-amino-3-methyl-1-oxobutan-2-ylamino)-3-(4-(N,N-dimethylsulfamoyl)phenylamino)pyrazine-2-carboxamide] | 10 to 100
CC(C)(C)C[C@@H](Nc1cnc(C(N)=O)c(Nc2cnn(C3CC3)c2)n1)C(N)=O [Example 259, (R)-5-(1-amino-4,4-dimethyl-1-oxopentan-2-ylamino)-3-(1-cyclopropyl-1H-pyrazol-4-ylamino)pyrazine-2-carboxamide] | 10 to 100
CCc1cc(Nc2nc(N[C@@H](C(N)=O)C(C)(C)C)cnc2C(N)=O)sn1 [Example 236, (R)-5-(1-amino-3,3-dimethyl-1-oxobutan-2-ylamino)-3-(3-ethylisothiazol-5-ylamino)pyrazine-2-carboxamide] | 10 to 100
Cc1ccc(Nc2nc(N[C@H](CC(F)F)C(N)=O)cnc2C(N)=O)cc1C [Example 122, (R)-5-((1-amino-4,4-difluoro-1-oxobutan-2-yl)amino)-3-((3,4-dimethylphenyl)amino)pyrazine-2-carboxamide] | < 1
CC[C@@H](Nc1cnc(C(N)=O)c(Nc2cc(C(C)(C)C)ns2)n1)C(N)=O [Example 228, (R)-5-(1-amino-1-oxobutan-2-ylamino)-3-(3-tert-butylisothiazol-5-ylamino)pyrazine-2-carboxamide] | 10 to 100
CC[C@@H](Nc1cnc(C(N)=O)c(Nc2ccc(-c3cnn(C)c3)cc2)n1)C(N)=O [Example 359, (R)-5-(1-amino-1-oxobutan-2-ylamino)-3-(4-(1-methyl-1H-pyrazol-4-yl)phenylamino)pyrazine-2-carboxamide] | 1 to 10
CC(C)C[C@@H](Nc1cnc(C(N)=O)c(Nc2cccc3c2ccn3C)n1)C(N)=O [Example 3, (R)-5-(1-amino-4-methyl-1-oxopentan-2-ylamino)-3-(1-methyl-1H-indol-4-ylamino)pyrazine-2-carboxamide] | 1 to 10
NC(=O)c1ncc(N[C@@H]2CCCC[C@@H]2N)nc1NC1CCCC1 [Example 36, 5-((1R,2S)-2-aminocyclohexylamino)-3-(cyclopentylamino)pyrazine-2-carboxamide] | > 1000
CCc1ccc(Nc2nc(N[C@H](CC(C)C)C(N)=O)cnc2C(N)=O)cn1 [Example 347, (R)-5-(1-amino-4-methyl-1-oxopentan-2-ylamino)-3-(6-ethylpyridin-3-ylamino)pyrazine-2-carboxamide] | 1 to 10
CC(C)C[C@@H](Nc1cnc(C(N)=O)c(Nc2ccc(-n3cccn3)cc2)n1)C(N)=O [Example 71] | 10 to 100
CC(=O)N(C)c1ccc(Nc2nc(N[C@@H](C(N)=O)C(C)C)cnc2C(N)=O)cc1 [Example 157, (R)-5-(1-amino-3-methyl-1-oxobutan-2-ylamino)-3-(4-(N-methylacetamido)phenylamino)pyrazine-2-carboxamide] | 100 to 1000
CC[C@@H](Nc1cnc(C(N)=O)c(Nc2cc(C(=O)N(C)C)ns2)n1)C(N)=O [Example 249, (R)-5-(6-(1-amino-1-oxobutan-2-ylamino)-3-carbamoylpyrazin-2-ylamino)-N,N-dimethylisothiazole-3-carboxamide] | 100 to 1000
CC[C@@H](Nc1cnc(C(N)=O)c(Nc2snc3sccc23)n1)C(N)=O [Example 271, (R)-5-(1-amino-1-oxobutan-2-ylamino)-3-(thieno[2,3-c]isothiazol-3-ylamino)pyrazine-2-carboxamide] | < 1

Second part, the compound after the results:

IC50 [nM] | Structure (SMILES)
1 to 10 | NC(=O)c1ncc(N[C@@H]2CCCC[C@@H]2N)nc1Nc1cncc(Cl)c1 [Example 217, 5-((1R,2S)-2-aminocyclohexylamino)-3-(5-chloropyridin-3-ylamino)pyrazine-2-carboxamide]
1 to 10 | NC(=O)c1ncc(NC2CCC(N)CC2)nc1Nc1cccc(-n2nccn2)c1 (stereo not drawn) [Example 188, 3-(3-(2H-1,2,3-triazol-2-yl)phenylamino)-5-((1r,4r)-4-aminocyclohexylamino)pyrazine-2-carboxamide]
10 to 100 | COc1cc(Nc2nc(N[C@@H]3CCCC(F)(F)[C@@H]3N)cnc2C(N)=O)cc(OC)c1 [Example 168, 5-((1R,2R)-2-amino-3,3-difluorocyclohexylamino)-3-(3,5-dimethoxyphenylamino)pyrazine-2-carboxamide]
< 1 | Cc1cccc(Nc2nc(N[C@@H]3CCCC[C@@H]3N)cnc2C(N)=O)c1 [Example 275, 5-((1R,2S)-2-aminocyclohexylamino)-3-(m-tolylamino)pyrazine-2-carboxamide]
10 to 100 | NC(=O)c1ncc(N[C@@H]2CCCC[C@@H]2N)nc1Nc1ccc(N2CCCCC2=O)cc1 [Example 441, 5-(((1R,2S)-2-aminocyclohexyl)amino)-3-((4-(2-oxopiperidin-1-yl)phenyl)amino)pyrazine-2-carboxamide]
1 to 10 | NC(=O)c1ncc(N[C@@H]2CCCC[C@@H]2N)nc1Nc1cc(-n2nccn2)cc(-n2nccn2)c1 [Example 424, 5-(((1R,2S)-2-aminocyclohexyl)amino)-3-((3,5-di(2H-1,2,3-triazol-2-yl)phenyl)amino)pyrazine-2-carboxamide]
1 to 10 | NC(=O)c1ncc(N[C@@H]2CCCC[C@@H]2N)nc1Nc1cc(-n2ccnn2)cc(-n2ccnn2)c1 [Example 432, 5-(((1R,2S)-2-aminocyclohexyl)amino)-3-((3,5-di(1H-1,2,3-triazol-1-yl)phenyl)amino)pyrazine-2-carboxamide]
10 to 100 | Cc1nsc(Nc2nc(N[C@@H]3CCCC[C@@H]3N)cnc2C(N)=O)c1-c1ccccc1 [Example 120, 5-(((1R,2S)-2-aminocyclohexyl)amino)-3-((3-methyl-4-phenylisothiazol-5-yl)amino)pyrazine-2-carboxamide]
1 to 10 | NC(=O)c1ncc(N[C@@H]2CCCC[C@@H]2N)nc1Nc1ccnc(F)c1 [Example 263, 5-((1R,2S)-2-aminocyclohexylamino)-3-(2-fluoropyridin-4-ylamino)pyrazine-2-carboxamide]
1 to 10 | CC[C@@H](Nc1cnc(C(N)=O)c(Nc2cnc3cc(F)ccc3c2)n1)C(N)=O [Example 233, (R)-5-(1-amino-1-oxobutan-2-ylamino)-3-(7-fluoroquinolin-3-ylamino)pyrazine-2-carboxamide]
1 to 10 | COc1cc(Nc2nc(N[C@@H]3CCOC[C@@H]3N)cnc2C(N)=O)ccn1 [Example 357, 5-((3R,4R)-3-aminotetrahydro-2H-pyran-4-ylamino)-3-(2-methoxypyridin-4-ylamino)pyrazine-2-carboxamide]
1 to 10 | NC(=O)c1ncc(N[C@@H]2CCNC2)nc1Nc1csc2ncccc12 [Example 106, (R)-5-(pyrrolidin-3-ylamino)-3-(thieno[2,3-b]pyridin-3-ylamino)pyrazine-2-carboxamide]
10 to 100 | NC(=O)c1ncc(N[C@@H]2CCCC(F)(F)[C@@H]2N)nc1Nc1cnc2ccccc2c1 [Example 102, 5-((1R,2R)-2-amino-3,3-difluorocyclohexylamino)-3-(quinolin-3-ylamino)pyrazine-2-carboxamide]
1 to 10 | Cn1ccc2cc(Nc3nc(N[C@H](CC4CC4)C(N)=O)cnc3C(N)=O)ccc21 [Example 396, (R)-5-(1-amino-3-cyclopropyl-1-oxopropan-2-ylamino)-3-(1-methyl-1H-indol-5-ylamino)pyrazine-2-carboxamide]
10 to 100 | COC[C@@H](Nc1cnc(C(N)=O)c(Nc2ccc3ncccc3c2)n1)C(N)=O [Example 360, (R)-5-(1-amino-3-methoxy-1-oxopropan-2-ylamino)-3-(quinolin-6-ylamino)pyrazine-2-carboxamide]
100 to 1000 | CN(C)C(=O)c1cc(Nc2nc(N[C@@H]3CCCC[C@@H]3N)cnc2C(N)=O)ccc1F [Example 284, 5-((1R,2S)-2-aminocyclohexylamino)-3-(3-(dimethylcarbamoyl)-4-fluorophenylamino)pyrazine-2-carboxamide]
< 1 | Cc1cc(Nc2nc(N[C@@H]3CCCC[C@@H]3N)cnc2C(N)=O)sn1 [Example 328, 5-((1R,2S)-2-aminocyclohexylamino)-3-(3-methylisothiazol-5-ylamino)pyrazine-2-carboxamide]
10 to 100 | NC(=O)c1ncc(N[C@@H]2CCCC(F)(F)[C@@H]2N)nc1Nc1ccc(-c2ccno2)cc1 [Example 18, 5-((1R,2R)-2-amino-3,3-difluorocyclohexylamino)-3-(4-(isoxazol-5-yl)phenylamino)pyrazine-2-carboxamide]
10 to 100 | NC(=O)c1ncc(N[C@@H]2CCCC[C@@H]2N)nc1Nc1cnn(CC2CC2)c1 [Example 219, 5-((1R,2S)-2-aminocyclohexylamino)-3-(1-(cyclopropylmethyl)-1H-pyrazol-4-ylamino)pyrazine-2-carboxamide]
